Assay results: ChEMBL document CHEMBL1201862, “PubChem BioAssay data set” (2004)
Calls of active or inactive are those of the source. For most assays here, no stated cut-off is given here; in the data, actives have a measured EC50 and inactives only a lower limit.

How the values were obtained:
[1] = Trypanosoma cruzi growth suppression in host cells – NIH3T3 host cells, beta-gal luminescence, confirmation (AID 2044); assay type: functional, cell-based;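 further: intracellular parasites grown in NIH/3T3 mouse fibroblasts as host cells; luminescent beta-galactosidase reporter signal from transgenic T. cruzi replicating inside host cells; inhibitors lower the luminescence signal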
[2] = NIH3T3 cell viability loss – ATP luminescence, mouse fibroblasts, counter-screen, dose response (AID 2010); assay type: functional, cell-based;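 further: cells exposed to compound for about 90 hours before reading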
[3] = biological target: T1, Heat shock factor protein 1 (Mus musculus, UniProt P38532); test: decrease of HSF1-responsive luciferase luminescence – cell-based, NIH3T3, dose retest, confirmation (AID 2382); assay type: functional;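 further: NIH3T3 fibroblasts with HSF1-driven luciferase reporter stressed by proteasome inhibitor MG132; luminescence from HSF1-driven luciferase expression after 8 hours of MG132 stress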
T1 sequence (P38532 whole entry): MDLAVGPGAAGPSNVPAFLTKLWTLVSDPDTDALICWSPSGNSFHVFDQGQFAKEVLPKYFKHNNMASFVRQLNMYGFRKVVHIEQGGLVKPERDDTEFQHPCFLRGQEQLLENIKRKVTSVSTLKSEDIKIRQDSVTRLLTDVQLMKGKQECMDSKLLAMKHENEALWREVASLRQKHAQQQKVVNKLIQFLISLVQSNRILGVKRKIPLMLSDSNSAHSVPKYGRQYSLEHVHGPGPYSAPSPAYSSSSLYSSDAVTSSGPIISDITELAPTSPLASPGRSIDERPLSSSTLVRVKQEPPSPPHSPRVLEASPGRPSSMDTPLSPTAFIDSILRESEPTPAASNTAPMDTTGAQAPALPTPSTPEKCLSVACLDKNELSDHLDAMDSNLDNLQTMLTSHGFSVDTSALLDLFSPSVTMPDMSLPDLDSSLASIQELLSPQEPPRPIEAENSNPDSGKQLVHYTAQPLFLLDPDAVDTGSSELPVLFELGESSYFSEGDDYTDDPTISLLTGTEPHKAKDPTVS

[4] = biological target: T2, Cytochrome P450 1A2 (Homo sapiens, UniProt P05177);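 further: PubChem cytochrome P450 panel assay, CYP1A2 panel member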
T2 sequence (P05177 whole entry): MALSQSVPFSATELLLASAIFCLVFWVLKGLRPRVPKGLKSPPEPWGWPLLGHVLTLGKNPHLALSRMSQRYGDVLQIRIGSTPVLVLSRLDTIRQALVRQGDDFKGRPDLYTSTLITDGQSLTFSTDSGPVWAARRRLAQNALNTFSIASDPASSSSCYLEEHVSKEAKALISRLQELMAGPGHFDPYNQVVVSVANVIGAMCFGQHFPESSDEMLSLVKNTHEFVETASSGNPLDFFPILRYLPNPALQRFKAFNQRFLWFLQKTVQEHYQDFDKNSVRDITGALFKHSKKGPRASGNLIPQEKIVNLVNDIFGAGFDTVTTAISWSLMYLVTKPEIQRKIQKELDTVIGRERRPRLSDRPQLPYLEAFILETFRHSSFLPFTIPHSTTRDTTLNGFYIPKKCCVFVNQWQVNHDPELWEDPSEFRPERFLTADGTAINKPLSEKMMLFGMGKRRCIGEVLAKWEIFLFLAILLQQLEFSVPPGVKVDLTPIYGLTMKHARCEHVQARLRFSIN

[5] = Luminescence Cell-Based Dose Confirmation HTS to Identify Activators of 5'UTR Stem-Loop Driven Alpha-Synuclein mRNA Translation in H4 Neuroglioblastoma Cells. [Related pubchem assays: 1829 (Project Summary), 1814 (Primary HTS)]; assay type: functional
[6] = test system: H4; test: Luminescence Cell-Based Dose Response HTS to Identify Activators of 5'UTR Stem-Loop Driven Prion Protein mRNA Translation in H4 Neuroglioblastoma Cells. [Related pubchem assays: 1829 (Project Summary), 1814 (Primary HTS)]; assay type: functional; conditions: Homo sapiens
[7] = Luminescence Cell-Based Dose Response HTS to Identify Activators of Luciferase Translation or Activity in H4 […] Cells. [Related pubchem assays: 1829 (Project Summary), 1814 (Primary HTS)]; assay type: functional

In the case of `Fc1ccc(COc2ccc(Br)cc2CNCc2ccncc2)cc1`, the EC50 [1] is reported as 780 nM (active) and the EC50 [2] is reported as > 30 µM (not active).

For `O=C(CSc1cccc2cccnc12)N1CCCC1`, the EC50 [1] was 299 nM (active) and the EC50 [2] was 8.3 µM (active).

For `Cc1[nH]c2ccccc2c1C(=O)CSc1nc2cc(S(=O)(=O)N3CCCCC3)ccc2o1`, the EC50 [1] was 2540 nM (active) and the EC50 [2] was 18.2 µM (active).

For `O=C(CCCNC(=O)/C(=C\c1ccccc1F)NC(=O)c1ccccc1)OCc1ccccc1`, the EC50 [3] was > 195 µM (not active).

For `COc1ccc(Cc2nnc(NC(=O)c3ccco3)s2)cc1`, the AC50 [4] was 11.2 µM (inconclusive).

With `COCCCNC(=O)Cn1cnc2sc(C)c(S(=O)(=O)N3CCN(c4ccccc4OC)CC3)c2c1=O` the EC50 [3] was > 195 µM (not active).

In the case of `Cc1cc(C)c(-c2nc3ccccc3s2)[nH]1`, the EC50 [5] is reported as 0.207 µM (active), the EC50 [6] is reported as 30.3 µM (active) and the EC50 [7] is reported as 1.61 µM (active).

With `O=C(/C=C/c1ccccc1)NCCC1=CCCCC1` the EC50 [5] was 0.378 µM (active), the EC50 [6] was 13.1 µM (active) and the EC50 [7] was 2.93 µM (active).

In the case of `COc1ccc(-c2ccc(-c3nnn(CC(=O)N4CCOCC4)n3)cc2)cc1`, the EC50 [5] is reported as 4.15 µM (active), the EC50 [6] is reported as 2.65 µM (active) and the EC50 [7] is reported as 4.67 µM (active).

With `CCc1cc(/C=N/C2CCCCC2)c(O)s1` the EC50 [5] was 67.7 µM (active), the EC50 [6] was > 120 µM (not active) and the EC50 [7] was > 120 µM (not active). The EC50 [3] was > 195 µM (not active).

In the case of `COc1ccccc1C(=O)NCC(=O)N/N=C/c1ccc2c(c1)OCO2`, the EC50 [3] is reported as > 195 µM (not active).

In the case of `CCN(CC)CCN1C(=O)Cn2c(C)c(C)c3cccc1c32`, the EC50 [1] is reported as 206 nM (active) and the EC50 [2] is reported as > 60 µM (not active).

With `O=C(N/N=C\c1ccc2c(c1)OCO2)c1ccc(Cn2cc(Br)c([N+](=O)[O-])n2)o1` the EC50 [1] was 408 nM (active) and the EC50 [2] was > 60 µM (not active).

For `CC(=O)NCC1=C(NC(C)=O)C2CC1C(C)(C)C2C` (centres undefined), the EC50 [3] was > 195 µM (not active).

For `CCCS(=O)(=O)c1nc(S(=O)(=O)c2ccc(C)cc2)c(N2CCN(CCO)CC2)s1`, the EC50 [5] was 18.7 µM (active), the EC50 [6] was > 120 µM (not active) and the EC50 [7] was 8.79 µM (active).

In the case of `CC(C)Cc1nnc(NC(=O)c2cccc(S(=O)(=O)N3CCN(C)CC3)c2)s1`, the EC50 [1] is reported as 100 nM (active) and the EC50 [2] is reported as > 60 µM (not active).

For `Cc1ccccc1NC(=O)N1C2CCCC1CC(NC(=O)C1CC1)C2` (centres undefined), the EC50 [3] was > 195 µM (not active).

With `CCCCN(C)C(=O)CCC(=O)Nc1ccc2nc(N3CCN(C)CC3)cc(C)c2c1` the EC50 [3] was > 195 µM (not active).

For `C[C@@H](C(=O)Nc1ccc2ccccc2c1)[C@@H]1C[C@@]1(C)[C@@H](NS(=O)(=O)c1ccc(-c2ccccc2)cc1)c1ccccc1`, the AC50 [4] was 12.6 µM (inconclusive).

In the case of `CC(C)(C)CC(=O)NCCc1csc(-c2ccccc2)n1`, the EC50 [1] is reported as 1100 nM (active) and the EC50 [2] is reported as > 60 µM (not active).

With `O=C(O)C(=O)Nc1ccc(NC(=O)C(c2ccccc2)c2ccccc2)cc1` the EC50 [3] was > 195 µM (not active).

For `CCOc1ccc(N/C(=C(/C(=O)C(=O)N2CCOCC2)C(=O)c2ccccc2)c2ccccc2)cc1`, the EC50 [5] was 13.3 µM (active), the EC50 [6] was 57.8 µM (active) and the EC50 [7] was 20.3 µM (active).

For `COC(=O)C1=C(N)N(c2ccccc2C(F)(F)F)C2=C(C(=O)CCC2)C1c1ccc2c(c1)OCO2` (centres undefined), the AC50 [4] was 31.6 µM (inconclusive), the EC50 [1] was 1240 nM (active) and the EC50 [2] was > 60 µM (not active).

With `COc1ccc(CCN(Cc2cccs2)S(=O)(=O)c2ccc(S(=O)(=O)N(C)C3CCCCC3)cc2)cc1OC` the EC50 [1] was 878 nM (active) and the EC50 [2] was > 60 µM (not active).

For `O=C(c1ccc(Cl)cc1)N1CCCC(c2ccccc2)=N1`, the AC50 [4] was 0.141 µM (inconclusive).

With `Cc1cc(N2CCN(C)CC2)nc2ccc(NC(=O)c3cccnc3Cl)cc12` the EC50 [3] was > 195 µM (not active).
